This note sets out measurements from patent US9393221B2, “Methods and compounds for reducing intracellular lipid storage” (THE GENERAL HOSPITAL CORPORATION, priority 2011, dated 2016).

Where a name gives a salt, the structure may show the parent alone.

The subject of the first test is ATGL-KO iPSCs. Kind of test: High throughput iPSC chemical screening, Oil Red O (ORO) lipid accumulation. As to Z-score: test concentration or dose not given here. Format: cell-based, mouse.
Conditions: not given
For `C[C@]12CC[C@@H](O)C[C@@H]1CC[C@@H]1[C@@H]2CC[C@]2(C)C(=O)CC[C@@H]12` [Androsterone], the Z-score turned out to be 1.156.

The same test, now with this note: glycolytic switch compounds.
`CN(C)c1nc(N(C)C)nc(N(C)C)n1` [Altretamine]: the “Rank in normalized ORO score from screen” value came out at 814.

For `O=C1O[C@H]([C@@H](O)CO)C(O)=C1O` [Ascorbic acid], the “Rank in normalized ORO score from screen” value was found to be 764.

Still in this test, the particulars now being: normalized ORO level vs DMSO-treated cells; compound present during 7 days differentiation, 96-well; negative = decrease in lipid accumulation.
`CCN1C[C@]2(COC)[C@H](O)C[C@H](OC)[C@@]34[C@@H]5C[C@@]6(O)[C@H](OC(=O)c7ccccc7)[C@@H]5[C@@](OC(C)=O)([C@@H]([C@H](OC)[C@H]23)[C@@H]14)[C@@H](O)[C@@H]6OC` [Aconitine] came in with a Z-score of 0.7907.

`Nc1nc2c(ncn2COCCO)c(=O)[nH]1` [Acyclovir] yielded a Z-score of −0.0091.

Regarding `NC12CC3CC(CC(C3)C1)C2.NC12CC3CC(CC(C3)C1)C2.O=C(O)/C=C/C(=O)O` [Adamantamine fumarate], the Z-score was determined as 0.2085.

As for `CCN(CC)CCOC(=O)C(c1ccccc1)c1ccccc1` [Adiphenine hydrochloride], the Z-score amounted to 0.801.

For `C[C@]12CCC(=O)C=C1CC[C@@H]1[C@@H]2C(=O)C[C@]2(C)C(=O)CC[C@@H]12` [Adrenosterone], the Z-score is given as −1.025.

Regarding `COC(=O)C1=CO[C@@H](C)[C@H]2CN3CCc4c([nH]c5ccccc45)[C@@H]3C[C@H]12.Cl` [Ajmalicine hydrochloride], the Z-score was −0.8989.

In turn, `CC[C@H]1[C@@H]2C[C@H]3[C@@H]4N(C)c5ccccc5[C@]45C[C@@H]([C@H]2[C@H]5O)N3[C@@H]1O` [Ajmaline] yielded a Z-score of −0.937.

In turn, `CCCSc1ccc2nc(NC(=O)OC)[nH]c2c1` [Albendazole] returned a Z-score of 41.6509.

The compound `CCC(=O)OCC(=O)[C@@]1(OC(=O)CC)[C@H](C)C[C@H]2[C@H]3[C@H]([C@@H](O)C[C@@]21C)[C@@]1(C)C=CC(=O)C=C1C[C@H]3Cl` [Alclometasone dipropionate] yielded a Z-score of 0.9375.

In turn, `C=CC[N@@+]12CC[C@@]34c5ccccc5N5/C=C6/[C@H]7C[C@H]8[C@@]9(CC[N@@+]8(CC=C)C/C7=C/CO)c7ccccc7N(/C=C(/[C@@H](C[C@@H]31)/C(=C\CO)C2)[C@H]54)[C@@H]69.[Cl-].[Cl-]` [Alcuronium chloride] returned a Z-score of 0.354.

With `CCCCC(CC)CNC(=N)NC(=N)NCCCCCCNC(=N)NC(=N)NCC(CC)CCCC` (stereo not shown) [Alexidine dihydrochloride], the Z-score is 43.2376.

For `CC(=O)OCC(=O)[C@H]1CC[C@H]2[C@@H]3CC[C@H]4C[C@H](O)CC[C@]4(C)[C@H]3C(=O)C[C@]12C` [Alfadolone acetate], the Z-score is −0.4554.

In the case of `COc1cc2nc(N(C)CCCNC(=O)C3CCCO3)nc(N)c2cc1OC` (stereo not shown) [Alfuzosin hydrochloride], the Z-score was 0.4534.

Compound `NC(=O)NC1NC(=O)NC1=O` (stereo not shown) [Allantoin] gave a Z-score of 0.8256.

For the compound `C=CCc1ccccc1OCC(O)CNC(C)C` (stereo not shown) [Alprenolol hydrochloride], the Z-score is 0.9239.

Turning to `CCCCC[C@H](O)/C=C/[C@H]1[C@H](O)CC(=O)[C@@H]1CCCCCCC(=O)O` [Alprostadil], the Z-score is −0.9154.

Compound `C=CCSCC1Nc2cc(Cl)c(S(N)(=O)=O)cc2S(=O)(=O)N1` (stereo not shown) [Althiazide] returned a Z-score of 0.2816.

Compound `CN(C)c1nc(N(C)C)nc(N(C)C)n1` [Altretamine] showed a Z-score of 0.5601.

Turning to `Nc1c(Br)cc(Br)cc1CN[C@H]1CC[C@H](O)CC1` [Ambroxol hydrochloride], the Z-score was −0.9433.

`Cc1c(N(C)C)c(=O)n(-c2ccccc2)n1C` [Amidopyrine] returned a Z-score of 0.347.

`NCC[C@H](O)C(=O)N[C@@H]1C[C@H](N)[C@@H](O[C@H]2O[C@H](CN)[C@@H](O)[C@H](O)[C@H]2O)[C@H](O)[C@H]1O[C@H]1O[C@H](CO)[C@@H](O)[C@H](N)[C@H]1O` [Amikacin hydrate] registered a Z-score of 2.444.

In the case of `N=C(N)NC(=O)c1nc(Cl)c(N)nc1N` [Amiloride hydrochloride dihydrate], the Z-score is 1.955.

`Nc1ccc(C(=O)NCC(=O)O)cc1` [Aminohippuric acid] displayed a Z-score of −1.1341.

For `Cn1c(=O)c2[nH]cnc2n(C)c1=O` [Aminophylline], the Z-score is −1.0552.

`c1ccc(CNc2ncnc3[nH]cnc23)cc1` [Aminopurine, 6-benzyl] gave a Z-score of −0.7385.

In turn, `CCCCc1oc2ccccc2c1C(=O)c1cc(I)c(OCCN(CC)CC)c(I)c1` [Amiodarone hydrochloride] came in with a Z-score of 0.1139.

`CN(C)CCCO[C@@H]1[C@H]2OC(C)(C)O[C@H]2O[C@@H]1[C@H](O)CO` [Amiprilose hydrochloride]: the Z-score is recorded as −0.6893.

As to `CN(C)CCC=C1c2ccccc2CCc2ccccc21.Cl` [Amitryptiline hydrochloride], the Z-score is given as 0.6781.

In the case of `CCN(CC)Cc1cc(Nc2ccnc3cc(Cl)ccc23)ccc1O` [Amodiaquin dihydrochloride dihydrate], the Z-score was 0.3315.

Compound `Clc1ccc2c(c1)C(N1CCNCC1)=Nc1ccccc1O2` [Amoxapine] came in with a Z-score of −0.8161.

The compound `CC1(C)S[C@@H]2[C@H](NC(=O)[C@H](N)c3ccc(O)cc3)C(=O)N2[C@H]1C(=O)O` [Amoxicillin] displayed a Z-score of −0.1957.

Turning to `C[C@@H]1[C@H](O)[C@@H](C)/C=C/C=C/C=C/C=C/C=C/C=C/C=C/[C@H](O[C@@H]2O[C@H](C)[C@@H](O)[C@H](N)[C@@H]2O)C[C@@H]2O[C@](O)(C[C@@H](O)C[C@@H](O)[C@H](O)CC[C@@H](O)C[C@@H](O)CC(=O)O[C@H]1C)C[C@H](O)[C@H]2C(=O)O` [Amphotericin B], the Z-score stood at 0.5223.

As to `CC1(C)S[C@@H]2[C@H](NC(=O)[C@H](N)c3ccccc3)C(=O)N2[C@H]1C(=O)O` [Ampicillin trihydrate], the Z-score was −1.3793.

The compound `CCCc1ncc(C[n+]2ccccc2C)c(N)n1` [Amprolium hydrochloride] returned a Z-score of 0.8329.

Turning to `Cc1c(N)c(=O)n(-c2ccccc2)n1C` [Ampyrone], the Z-score is −0.2996.

Turning to `Nc1cc(-c2ccncc2)c[nH]c1=O` [Amrinone], the Z-score is given as 1.535.

Compound `c1cncc([C@@H]2CCCCN2)c1` [Anabasine] yielded a Z-score of −0.7781.

On to `COc1ccc(C[C@H]2NC[C@H](O)[C@H]2OC(C)=O)cc1` [Anisomycin], for which the Z-score stood at 30.3787.

`Cc1c(O)c(=O)n(-c2ccccc2)n1C` [Antipyrine, 4-hydroxy] showed a Z-score of 0.52.

Consider `Cc1cc(=O)n(-c2ccccc2)n1C` [Antipyrine], for which the Z-score is listed as −0.2127.

On to `O=c1cc(-c2ccc(O)cc2)oc2cc(O)cc(O)c12` [Apigenin], for which the Z-score was −0.2208.

Compound `CN[C@@H]1[C@@H](O[C@H]2O[C@H](CO)[C@@H](N)[C@H](O)[C@H]2O)OC2C[C@@H](N)[C@@H](O[C@H]3[C@H](O)[C@@H](O)[C@H](N)C[C@@H]3N)OC2[C@@H]1O` (stereo partly shown) [Apramycin] showed a Z-score of −1.1349.

The compound `OC[C@H]1O[C@@H](Oc2ccc(O)cc2)[C@H](O)[C@@H](O)[C@@H]1O` [Arbutin] returned a Z-score of 0.1806.

`NC(N)=NCCCCN=C(N)N` [Arcaine sulfate] gave a Z-score of 0.3237.

For `COC(=O)C1=CCCN(C)C1` [Arecoline hydrobromide], the Z-score was determined as 0.1373.

In turn, `C[C@@H]1CC[C@H]2[C@@H](C)C(=O)O[C@@H]3O[C@@]4(C)CC[C@@H]1[C@]32OO4` [Artemisinin] came in with a Z-score of 4.801.

The compound `CCCNC(C)C(=O)Nc1c(C)csc1C(=O)OC` (stereo not shown) [Articaine hydrochloride] had a Z-score of 0.836.

For the compound `O=C1O[C@H]([C@@H](O)CO)C(O)=C1O` [Ascorbic acid], the Z-score worked out at 0.3599.

For the compound `COc1ccc(CCN2CCC(Nc3nc4ccccc4n3Cc3ccc(F)cc3)CC2)cc1` [Astemizole], the Z-score is −0.7215.

As to `O=C1C(O)=C([C@H]2CC[C@H](c3ccc(Cl)cc3)CC2)C(=O)c2ccccc21` [Atovaquone], the Z-score stood at 0.629.

In the case of `C=C1[C@@H]2CC[C@H]3[C@]4(C)C[C@H](O[C@@H]5O[C@H](CO)[C@@H](OS(=O)(=O)O)[C@H](OS(=O)(=O)O)[C@H]5OC(=O)CC(C)C)C[C@@H](C(=O)O)[C@H]4CC[C@]3(C2)[C@@H]1O` [Atractyloside potassium salt], the Z-score is given as −0.3937.

Consider `COc1ccc(CC2c3cc(OC)c(OC)cc3CC[N+]2(C)CCC(=O)OCCCCCOC(=O)CC[N+]2(C)CCc3cc(OC)c(OC)cc3C2Cc2ccc(OC)c(OC)c2)cc1OC` (stereo not shown) [Atracurium besylate], for which the Z-score is on record as 1.182.

In the case of `CN1[C@@H]2CC[C@H]1C[C@@H](OC(=O)C(CO)c1ccccc1)C2` (stereo partly shown) [Atropine sulfate monohydrate], the Z-score is recorded as 1.183.

Turning to `CC1=CC(=O)C2=C(C)C[C@H](O)[C@@H]3[C@H](OC(=O)[C@H]3C)[C@H]12` [Austricine], the Z-score is listed as −0.5795.

As to `OC(c1ccccc1)(c1ccccc1)C1CCNCC1` [Azacyclonol], the Z-score was −1.0159.

`Nc1ncn([C@@H]2O[C@H](CO)[C@@H](O)[C@H]2O)c(=O)n1` [Azacytidine-5] displayed a Z-score of 16.1728.

Consider `Nc1nc(O)c2[nH]nnc2n1` [Azaguanine-8], for which the Z-score is recorded as 2.948.

In turn, `O=C(CCCN1CCN(c2ccccn2)CC1)c1ccc(F)cc1` [Azaperone] registered a Z-score of 1.543.

`CCCC1C(=O)N2C(N(C)C)=Nc3ccc(C)cc3N2C1=O` (stereo not shown) [Azapropazone] registered a Z-score of −0.6493.

Take `Cn1cnc([N+](=O)[O-])c1Sc1ncnc2nc[nH]c12` [Azathioprine]: the Z-score is 17.2224.

Take `Cc1n[nH]c(=O)[nH]c1=O` [Azathymine, 6]: the Z-score is recorded as −0.2304.

`CC1(C)S[C@@H]2[C@H](NC(=O)[C@H](NC(=O)N3CCNC3=O)c3ccccc3)C(=O)N2[C@H]1C(=O)O` [Azlocillin sodium salt] showed a Z-score of −1.1617.

`C[C@H]1[C@H](NC(=O)/C(=N\OC(C)(C)C(=O)O)c2csc(N)n2)C(=O)N1S(=O)(=O)O` [Aztreonam] had a Z-score of 0.1728.

The compound `CCOC(=O)OC(C)OC(=O)[C@@H]1N2C(=O)[C@@H](NC(=O)[C@H](N)c3ccccc3)[C@H]2SC1(C)C` (stereo partly shown) [Bacampicillin hydrochloride] displayed a Z-score of 0.09702.
